We go through nine compounds from ChEMBL document CHEMBL5465560, “Selectivity Literature for EUbOPEN Chemogenomic Library” (2024).

Assay [1] addresses T1, Tyrosine-protein kinase receptor TYRO3 (Homo sapiens) (UniProt Q06418).
T1 sequence (whole entry): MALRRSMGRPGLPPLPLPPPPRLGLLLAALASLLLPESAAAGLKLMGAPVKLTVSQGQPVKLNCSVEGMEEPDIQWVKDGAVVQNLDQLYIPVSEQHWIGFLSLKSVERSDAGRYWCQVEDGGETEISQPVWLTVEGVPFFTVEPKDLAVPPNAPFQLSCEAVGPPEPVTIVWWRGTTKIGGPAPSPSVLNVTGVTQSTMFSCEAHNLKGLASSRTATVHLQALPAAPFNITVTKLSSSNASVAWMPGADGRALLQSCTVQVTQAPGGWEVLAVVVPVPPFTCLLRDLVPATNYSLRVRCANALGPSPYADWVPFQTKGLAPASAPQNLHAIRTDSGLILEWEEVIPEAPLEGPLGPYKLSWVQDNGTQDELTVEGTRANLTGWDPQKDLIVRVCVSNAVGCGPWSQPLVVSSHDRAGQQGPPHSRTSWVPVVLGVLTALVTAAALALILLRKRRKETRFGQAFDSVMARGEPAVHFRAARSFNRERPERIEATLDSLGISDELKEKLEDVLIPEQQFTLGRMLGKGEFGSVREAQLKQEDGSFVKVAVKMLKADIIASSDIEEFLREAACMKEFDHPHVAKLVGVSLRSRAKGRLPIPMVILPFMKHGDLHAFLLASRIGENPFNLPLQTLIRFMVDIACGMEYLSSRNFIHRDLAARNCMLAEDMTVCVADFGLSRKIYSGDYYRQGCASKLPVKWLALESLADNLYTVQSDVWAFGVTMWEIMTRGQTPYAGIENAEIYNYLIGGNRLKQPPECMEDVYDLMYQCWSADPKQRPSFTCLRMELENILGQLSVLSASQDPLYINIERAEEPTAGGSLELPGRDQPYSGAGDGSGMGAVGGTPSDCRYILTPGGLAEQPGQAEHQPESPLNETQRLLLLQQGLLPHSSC
Description: Selectivity interaction (KinomeScan (DiscoverX)) EUB0000655a TYRO3. As to conditions: at 10 µM.

Assay [2] concerns the target Tyrosine-protein kinase HCK (Homo sapiens) (UniProt P08631). Kind of assay: Selectivity interaction (KinomeScan (DiscoverX)) EUB0000045b HCK.
Assay [3] addresses Glycogen synthase kinase-3 beta (Homo sapiens, UniProt P49841). Description: Selectivity interaction (KinomeScan (DiscoverX)) EUB0000666a GSK3B. As to conditions: at 10 µM.
The target of assay [4] is Serine/threonine-protein kinase PAK 3 (Homo sapiens) (UniProt O75914). Kind of assay: Selectivity interaction (KinomeScan (DiscoverX)) EUB0000666a PAK3. As to conditions: at 10 µM.
Chain of Serine/threonine-protein kinase PAK 3 (Homo sapiens) (O75914 whole entry, looked up): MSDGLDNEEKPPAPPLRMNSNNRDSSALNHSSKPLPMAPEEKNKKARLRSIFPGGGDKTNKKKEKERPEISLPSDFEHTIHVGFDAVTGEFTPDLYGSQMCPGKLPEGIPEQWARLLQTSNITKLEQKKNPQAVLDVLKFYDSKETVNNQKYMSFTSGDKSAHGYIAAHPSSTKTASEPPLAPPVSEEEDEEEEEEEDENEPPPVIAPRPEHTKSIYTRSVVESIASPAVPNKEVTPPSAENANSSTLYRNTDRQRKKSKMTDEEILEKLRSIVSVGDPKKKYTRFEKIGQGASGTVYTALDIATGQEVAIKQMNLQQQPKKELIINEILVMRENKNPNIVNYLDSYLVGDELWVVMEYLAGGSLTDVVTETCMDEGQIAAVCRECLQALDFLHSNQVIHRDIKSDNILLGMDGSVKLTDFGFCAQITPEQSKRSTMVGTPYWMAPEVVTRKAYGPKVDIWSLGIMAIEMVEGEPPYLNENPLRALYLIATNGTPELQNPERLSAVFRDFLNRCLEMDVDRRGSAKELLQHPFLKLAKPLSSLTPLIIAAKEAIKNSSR
For assay [5], the target named is T2, Dual specificity protein kinase CLK1 (Homo sapiens, UniProt P49759). Description: Selectivity interaction (KinomeScan (DiscoverX)) EUB0000607a CLK1. As to conditions: at 10 µM.
T2 sequence (P49759 whole entry, looked up): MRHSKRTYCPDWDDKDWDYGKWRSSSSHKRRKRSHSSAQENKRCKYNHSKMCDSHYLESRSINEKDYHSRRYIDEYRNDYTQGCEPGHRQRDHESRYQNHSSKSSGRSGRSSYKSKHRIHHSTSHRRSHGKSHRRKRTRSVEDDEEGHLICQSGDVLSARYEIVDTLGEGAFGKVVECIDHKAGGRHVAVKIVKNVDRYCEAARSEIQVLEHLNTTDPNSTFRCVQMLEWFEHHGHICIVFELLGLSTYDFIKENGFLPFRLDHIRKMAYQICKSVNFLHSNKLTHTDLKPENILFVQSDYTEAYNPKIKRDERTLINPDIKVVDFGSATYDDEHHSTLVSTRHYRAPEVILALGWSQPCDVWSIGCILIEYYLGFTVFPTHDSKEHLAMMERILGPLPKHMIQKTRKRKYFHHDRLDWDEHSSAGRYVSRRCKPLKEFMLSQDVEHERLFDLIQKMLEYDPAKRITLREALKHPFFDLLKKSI
For assay [6], the target named is Epidermal growth factor receptor (Homo sapiens, UniProt P00533). Description: Selectivity interaction (Kinase panel (Invitrogen)) EUB0000639a EGFR. As to conditions: at 200 nM.
Chain of Epidermal growth factor receptor (P00533 whole entry): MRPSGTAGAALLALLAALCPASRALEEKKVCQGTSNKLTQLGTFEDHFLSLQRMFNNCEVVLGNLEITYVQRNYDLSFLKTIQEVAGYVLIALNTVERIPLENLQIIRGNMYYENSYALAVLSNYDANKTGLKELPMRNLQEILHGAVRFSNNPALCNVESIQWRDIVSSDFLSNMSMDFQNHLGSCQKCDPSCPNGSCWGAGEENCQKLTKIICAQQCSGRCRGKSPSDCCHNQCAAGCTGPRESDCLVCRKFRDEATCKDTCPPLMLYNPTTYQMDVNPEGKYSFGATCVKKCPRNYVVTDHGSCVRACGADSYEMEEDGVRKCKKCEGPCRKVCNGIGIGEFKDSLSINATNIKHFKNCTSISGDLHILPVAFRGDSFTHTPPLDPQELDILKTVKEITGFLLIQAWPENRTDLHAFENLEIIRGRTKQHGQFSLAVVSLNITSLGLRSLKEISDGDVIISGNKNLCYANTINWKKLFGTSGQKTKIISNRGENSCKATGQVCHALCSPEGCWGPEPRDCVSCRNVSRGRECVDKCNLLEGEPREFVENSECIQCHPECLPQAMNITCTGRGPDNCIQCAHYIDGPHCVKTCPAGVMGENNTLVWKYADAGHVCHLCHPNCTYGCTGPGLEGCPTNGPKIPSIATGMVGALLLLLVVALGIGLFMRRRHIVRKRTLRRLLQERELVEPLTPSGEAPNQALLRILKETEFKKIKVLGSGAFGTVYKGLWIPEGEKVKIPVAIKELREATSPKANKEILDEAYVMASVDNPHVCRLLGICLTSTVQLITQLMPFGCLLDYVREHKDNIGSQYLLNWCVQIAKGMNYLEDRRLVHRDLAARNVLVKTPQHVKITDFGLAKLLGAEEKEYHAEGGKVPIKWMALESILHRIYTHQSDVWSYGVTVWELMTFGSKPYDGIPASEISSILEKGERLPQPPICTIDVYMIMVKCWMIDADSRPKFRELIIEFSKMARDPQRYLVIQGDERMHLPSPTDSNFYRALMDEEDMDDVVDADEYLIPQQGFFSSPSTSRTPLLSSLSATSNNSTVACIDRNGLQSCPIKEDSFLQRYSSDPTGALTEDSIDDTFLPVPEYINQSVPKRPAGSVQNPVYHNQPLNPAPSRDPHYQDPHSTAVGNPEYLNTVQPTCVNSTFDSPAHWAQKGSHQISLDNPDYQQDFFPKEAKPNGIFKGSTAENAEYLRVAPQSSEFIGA
Assay [7] addresses T3, Mitogen-activated protein kinase kinase kinase 7 (Homo sapiens) (UniProt O43318).
T3 sequence (whole entry): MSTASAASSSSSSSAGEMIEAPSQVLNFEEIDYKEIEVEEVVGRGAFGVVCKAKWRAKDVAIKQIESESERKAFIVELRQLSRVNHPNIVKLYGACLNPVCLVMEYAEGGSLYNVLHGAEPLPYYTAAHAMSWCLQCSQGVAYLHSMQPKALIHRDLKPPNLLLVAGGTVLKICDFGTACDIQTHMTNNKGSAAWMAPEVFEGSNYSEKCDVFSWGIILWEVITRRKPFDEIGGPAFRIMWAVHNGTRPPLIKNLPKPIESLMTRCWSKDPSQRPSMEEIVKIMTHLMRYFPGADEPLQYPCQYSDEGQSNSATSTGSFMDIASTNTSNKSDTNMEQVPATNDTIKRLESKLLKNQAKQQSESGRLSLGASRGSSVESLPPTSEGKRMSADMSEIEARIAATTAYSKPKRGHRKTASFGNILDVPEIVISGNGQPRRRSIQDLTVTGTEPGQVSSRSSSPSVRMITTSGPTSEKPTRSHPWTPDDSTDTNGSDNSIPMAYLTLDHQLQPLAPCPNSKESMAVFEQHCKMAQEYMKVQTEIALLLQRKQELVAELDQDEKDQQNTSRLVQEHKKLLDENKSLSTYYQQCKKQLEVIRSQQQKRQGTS
Description: Selectivity interaction (Kinase panel (Invitrogen)) EUB0000639a MAP3K7. As to conditions: at 200 nM.

The target in assay [8] is [Pyruvate dehydrogenase (acetyl-transferring)] kinase isozyme 1, mitochondrial (Homo sapiens, UniProt Q15118). Kind of assay: Selectivity interaction (Kinase panel (Invitrogen)) EUB0000639a PDK1. As to conditions: at 200 nM.
Assay [9] addresses Bromodomain-containing protein 4 (Homo sapiens, UniProt O60885). Kind of assay: Selectivity interaction (Human bromodomain panel (DSF assay)) EUB0000233b BRD4.
Assay [10] deals with Tyrosine-protein kinase BTK (Homo sapiens, UniProt Q06187). Kind of assay: Selectivity interaction (KinomeScan (DiscoverX)) EUB0000595a BTK. Conditions: at 10 µM.
Chain of Tyrosine-protein kinase BTK (Q06187 whole entry): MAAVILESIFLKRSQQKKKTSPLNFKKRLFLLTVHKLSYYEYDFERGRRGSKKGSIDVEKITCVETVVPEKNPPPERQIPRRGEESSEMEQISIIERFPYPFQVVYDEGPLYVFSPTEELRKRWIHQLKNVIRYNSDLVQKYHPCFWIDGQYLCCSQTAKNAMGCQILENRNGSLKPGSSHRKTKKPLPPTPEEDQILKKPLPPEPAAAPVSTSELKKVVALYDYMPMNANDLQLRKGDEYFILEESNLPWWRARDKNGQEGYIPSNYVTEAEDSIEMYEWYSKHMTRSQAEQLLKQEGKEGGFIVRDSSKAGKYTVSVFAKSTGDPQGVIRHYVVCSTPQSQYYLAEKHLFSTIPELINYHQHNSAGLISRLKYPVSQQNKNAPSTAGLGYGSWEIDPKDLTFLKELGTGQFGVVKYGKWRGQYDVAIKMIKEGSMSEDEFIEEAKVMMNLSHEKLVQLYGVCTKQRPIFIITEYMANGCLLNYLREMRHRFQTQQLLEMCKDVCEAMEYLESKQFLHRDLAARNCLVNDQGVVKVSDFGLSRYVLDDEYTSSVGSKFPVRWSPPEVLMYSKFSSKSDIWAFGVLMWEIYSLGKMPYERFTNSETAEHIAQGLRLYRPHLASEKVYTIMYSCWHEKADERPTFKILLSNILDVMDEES
Assay [11] concerns the target Mitogen-activated protein kinase 7 (Homo sapiens) (UniProt Q13164). Kind of assay: Selectivity interaction (KinomeScan (DiscoverX)) EUB0001619a MAPK7. Conditions: at 1 µM.
In assay [12] the target is T2, Dual specificity protein kinase CLK1. Kind of assay: Selectivity interaction (KinomeScan (DiscoverX)) EUB0000618a CLK1. Conditions: at 10 µM.
The target of assay [13] is T4, cGMP-dependent protein kinase 2 (Homo sapiens) (UniProt Q13237).
T4 sequence (whole entry): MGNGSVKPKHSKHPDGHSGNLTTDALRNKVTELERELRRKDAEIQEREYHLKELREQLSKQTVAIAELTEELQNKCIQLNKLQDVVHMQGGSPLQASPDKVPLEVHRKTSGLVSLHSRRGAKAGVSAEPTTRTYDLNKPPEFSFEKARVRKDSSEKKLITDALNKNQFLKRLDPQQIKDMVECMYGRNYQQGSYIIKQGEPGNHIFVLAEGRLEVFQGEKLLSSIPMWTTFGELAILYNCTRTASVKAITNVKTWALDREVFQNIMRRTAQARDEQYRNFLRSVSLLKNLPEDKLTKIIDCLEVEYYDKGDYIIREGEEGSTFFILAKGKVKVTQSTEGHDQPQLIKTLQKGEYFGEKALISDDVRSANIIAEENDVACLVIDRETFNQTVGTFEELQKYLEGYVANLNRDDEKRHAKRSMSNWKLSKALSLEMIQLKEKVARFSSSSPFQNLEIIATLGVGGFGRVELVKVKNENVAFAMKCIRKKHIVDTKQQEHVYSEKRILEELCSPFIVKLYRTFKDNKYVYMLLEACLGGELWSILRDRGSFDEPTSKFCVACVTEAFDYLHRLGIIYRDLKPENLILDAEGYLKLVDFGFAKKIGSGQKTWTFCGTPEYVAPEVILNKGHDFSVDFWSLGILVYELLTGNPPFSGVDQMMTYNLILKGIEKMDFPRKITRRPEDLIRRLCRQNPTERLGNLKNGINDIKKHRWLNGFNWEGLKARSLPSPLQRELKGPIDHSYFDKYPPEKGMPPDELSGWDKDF
Kind of assay: Selectivity interaction (KinomeScan (DiscoverX)) EUB0000618a PRKG2. As to conditions: at 10 µM.

Chain of Tyrosine-protein kinase HCK (Homo sapiens) (P08631 2-526 limits assumed): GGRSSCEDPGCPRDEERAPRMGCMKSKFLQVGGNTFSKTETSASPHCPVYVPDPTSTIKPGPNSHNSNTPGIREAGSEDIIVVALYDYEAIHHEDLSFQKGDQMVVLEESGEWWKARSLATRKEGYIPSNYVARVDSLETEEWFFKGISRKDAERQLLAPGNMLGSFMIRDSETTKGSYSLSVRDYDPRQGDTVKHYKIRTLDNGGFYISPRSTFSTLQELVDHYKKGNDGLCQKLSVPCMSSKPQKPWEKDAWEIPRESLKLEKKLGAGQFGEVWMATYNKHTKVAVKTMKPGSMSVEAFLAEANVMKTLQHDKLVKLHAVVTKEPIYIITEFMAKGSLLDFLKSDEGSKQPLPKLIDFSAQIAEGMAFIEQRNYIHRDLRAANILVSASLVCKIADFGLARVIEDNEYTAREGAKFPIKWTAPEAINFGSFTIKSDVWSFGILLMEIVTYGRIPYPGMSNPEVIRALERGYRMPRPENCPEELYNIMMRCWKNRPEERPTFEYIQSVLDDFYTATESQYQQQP
Chain of Mitogen-activated protein kinase 7 (Homo sapiens) (Q13164 2-816 limits assumed): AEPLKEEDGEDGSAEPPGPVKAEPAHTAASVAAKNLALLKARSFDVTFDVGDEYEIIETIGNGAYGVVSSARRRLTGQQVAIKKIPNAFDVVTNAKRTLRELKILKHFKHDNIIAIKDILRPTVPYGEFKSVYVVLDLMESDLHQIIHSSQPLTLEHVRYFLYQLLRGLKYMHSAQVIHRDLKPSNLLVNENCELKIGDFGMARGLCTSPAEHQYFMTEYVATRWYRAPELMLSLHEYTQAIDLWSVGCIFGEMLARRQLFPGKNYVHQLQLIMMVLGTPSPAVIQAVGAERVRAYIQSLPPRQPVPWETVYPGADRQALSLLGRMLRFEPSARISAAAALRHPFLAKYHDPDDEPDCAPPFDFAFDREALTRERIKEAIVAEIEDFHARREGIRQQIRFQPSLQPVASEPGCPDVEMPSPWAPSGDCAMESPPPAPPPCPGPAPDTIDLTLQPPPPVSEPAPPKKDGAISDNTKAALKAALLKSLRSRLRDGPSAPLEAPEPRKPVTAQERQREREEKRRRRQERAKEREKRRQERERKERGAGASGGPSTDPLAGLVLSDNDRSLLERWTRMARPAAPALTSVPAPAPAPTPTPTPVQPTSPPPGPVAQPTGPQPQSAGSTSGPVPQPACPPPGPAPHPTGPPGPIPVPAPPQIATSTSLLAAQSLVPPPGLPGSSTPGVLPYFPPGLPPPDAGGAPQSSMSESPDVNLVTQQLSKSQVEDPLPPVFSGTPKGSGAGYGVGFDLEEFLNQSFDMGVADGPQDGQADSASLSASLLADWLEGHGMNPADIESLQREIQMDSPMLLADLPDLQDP
Chain of Glycogen synthase kinase-3 beta (P49841 whole entry, looked up): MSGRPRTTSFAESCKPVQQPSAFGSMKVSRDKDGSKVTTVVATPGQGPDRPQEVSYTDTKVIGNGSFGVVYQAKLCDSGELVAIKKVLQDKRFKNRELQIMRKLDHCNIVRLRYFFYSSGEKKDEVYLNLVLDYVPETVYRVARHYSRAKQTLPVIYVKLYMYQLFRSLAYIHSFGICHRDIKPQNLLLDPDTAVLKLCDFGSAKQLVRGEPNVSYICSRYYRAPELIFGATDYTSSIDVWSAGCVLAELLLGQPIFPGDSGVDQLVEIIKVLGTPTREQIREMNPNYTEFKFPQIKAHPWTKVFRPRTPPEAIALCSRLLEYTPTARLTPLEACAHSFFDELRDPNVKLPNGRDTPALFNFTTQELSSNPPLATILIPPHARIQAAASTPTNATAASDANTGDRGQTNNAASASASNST

In assay [1], `CN(C)CCOc1ccc(-c2nc(-c3ccncc3)c(-c3ccc4c(c3)CC/C4=N\O)[nH]2)cc1` had a % of control of 100%.
In the case of `C=CC(=O)Nc1cc(-n2c(=O)ccc3cnc4ccc(-c5ccc(NS(C)(=O)=O)cc5)cc4c32)ccc1C`, the % of control in [2] (at 1 µM) is 97%; in assay [2] (at 10 µM), 100%.
As for `O=C(NOC[C@H](O)CO)c1ccc(F)c(F)c1Nc1ccc(I)cc1F`, the figures for the % of control in assay [3] and in assay [4] were 68% and 100%, respectively.
As for `CNC(=O)Nc1ccc(-c2nc(N3CC4CCC(C3)O4)c3cnn(C4CCC5(CC4)OCCO5)c3n2)cc1`, the % of control in assay [5] is 29%.
Take `CC[C@@H]1[C@H](F)C(=O)N[C@@H]1COc1nccc2cc(C(N)=O)c(OC)cc12` [ZIMLOVISERTIB]: the figures for the % of inhibition in assay [6], in assay [7] and in assay [8] were 3.43%, 8.31% and 15.8%, respectively.
As for `CN(C)CCCOc1ccc(-c2cc(NCCCn3cccn3)nc(S(C)(=O)=O)n2)cc1`, the dTM in [9] was below 2 K.
`COCC(=O)NC/C=C/c1ccc2ncnc(Nc3ccc(Oc4ccc(C)nc4)c(C)c3)c2c1` [CP-724714]: in [10], the % of control is 68%.
With `N#Cc1cccc(-c2c[nH]c3ncnc(N4CCOCC4)c23)c1`, the % of control in assay [11] turned out to be 100%.
With `O[C@H]1CC[C@H](Nc2ncc3nc(Nc4c(F)cc(F)cc4F)n([C@H]4CCOC4)c3n2)CC1`, the % of control in assay [12] amounted to 79%; in assay [13], 100%.
